# Data: patent US20240226083A9, “MEDICAMENT FOR TREATMENT AND/OR PROPHYLACTIC TREATMENT OF CANCERS” (Belina Pharma AB, priority 2019, published 2024)
# Tests used:
# breast cancer [1] = assay: Swedish nation-wide register study, cancer specific survival of antihistamine users vs non-users: breast cancer; assay type: in vivo, human; conditions: in words
# Experimental: (§1) Both peri- and post-diagnostic antihistamine use was analyzed, using Cox regression models, as well as different subgroups of patients with regard to age, gender (as a proxy for sex) and tumor status.
# (§2) Material and methods Linking the Cancer Registry with the Drug Prescription Registry and Cause of Death Registry the survival of over 500 000 cancer patients with cancer in the breast-, prostate, ventrikel, pancreas, kidney, colo-rectal, lung, uterus, ovary, brain, melanoma, lymph gland and bone marrow was studied between 2005-2014.
# Use of the six major antihistamines was established using the Swedish Prescribed Drug Register, a record of all dispensed prescribed pharmaceuticals in Sweden since July 1st 2005. To be included in the registry at least 2 weeks of prescription is required. […] Causes of death were obtained from the Swedish Cause of Death Register, a database where all deaths have been recorded since 1952. […]
# We analyzed both the peri- and cumulative post-diagnostic use of antihistamines among melanoma patients. […]
# (§3) For the cumulative post-diagnostic antihistamine use analysis, mortality rates for antihistamine users were compared to those of non-users through a Cox regression model allowing for time varying covariates, and survival time was measured in years since diagnosis. […] The impact of the cumulative DDDs was assessed after log transformation of the DDDs plus one3. […]
# [2] = tested on: lympho-hematopoetic malignancies; assay: Swedish nation-wide register study, cancer specific survival of antihistamine users vs non-users: lympho-hematopoetic malignancies; assay type: in vivo, human; conditions: in words
# Experimental: (§9) For the cumulative post-diagnostic antihistamine use analysis, mortality rates for antihistamine users were compared to those of non-users through a Cox regression model allowing for time varying covariates, and survival time was measured in years since diagnosis. This allowed for a single individual to provide data as both a non-user and user of different antihistamines. The impact of the cumulative DDDs was assessed after log transformation of the DDDs plus one3. Cox regression analyses were stratified for patient age at diagnosis, tumor size and node status (T and N status, respectively). […]
# all tumour types = assay: Swedish nation-wide register study, cancer specific survival of antihistamine users vs non-users: across tumour types; assay type: in vivo, human; conditions: for effect of use on survival, all tumour types: users vs non-users, in words
# Experimental: as §1, §2
# (§4) Use of the six major antihistamines was established using the Swedish Prescribed Drug Register, a record of all dispensed prescribed pharmaceuticals in Sweden since July 1st 2005. To be included in the registry at least 2 weeks of prescription is required. Prescription free antihistamine use, non-dispensed doses, or use of other, less common, types of antihistamines is here considered non-use. Causes of death were obtained from the Swedish Cause of Death Register, a database where all deaths have been recorded since 1952. Data was pseudo-anonymized and the study was approved by the Regional Ethics Board.
# (§5) We analyzed both the peri- and cumulative post-diagnostic use of antihistamines among […]. Peri-diagnostic use was a proxy for ever-use, and is here defined as use within six months pre-diagnosis and six months post-diagnosis, where the main antihistamine (in terms of dispensed defined daily doses, or DDDs) used by each individual during this time was identified. The analysis was done using a Cox regression model with time to even or censoring in years as a time scale. Subgroup analyses were made for groups based on age and gender (as a proxy for sex).
# (§6) For the cumulative post-diagnostic antihistamine use analysis, mortality rates for antihistamine users were compared to those of non-users through a Cox regression model allowing for time varying covariates, and survival time was measured in years since diagnosis. This allowed for a single individual to provide data as both a non-user and user of different antihistamines. The impact of the cumulative DDDs was assessed after log transformation of the DDDs plus one3. Cox regression analyses were stratified for patient age at diagnosis, tumor size and node status (T and N status, respectively). A lag-time analysis was performed as described by Tamim et al. and Richardson et al. Statistical analyses were performed using R version XXX6.
# (§7) Information on stage, socio-economic factors, tumour therapies, and prognostic tumour factors are not present in the national registries.
# (§8) The confidence interval (95% CI) indicates the level of uncertainty around the measure of effect. A 95% confidence interval means that the confidence interval covers the true value in 95 of 100 studies performed. […]
# breast cancer [3] = conditions: earlier filing, in words; cited from earlier work
# [4] = tested on: patients with prostate cancer; assay: Swedish nation-wide register study, cancer specific survival of antihistamine users vs non-users: prostate cancer; assay type: in vivo, human; conditions: in words
# Experimental: as §9
# [5] = tested on: patients with uterus cancer; assay: Swedish nation-wide register study, cancer specific survival of antihistamine users vs non-users: uterine cancer; assay type: in vivo, human; conditions: in words
# [6] = tested on: patients with ovarian cancer; assay: Swedish nation-wide register study, cancer specific survival of antihistamine users vs non-users: ovarian cancer; assay type: in vivo, human; conditions: for effect of use on ovarian cancer survival: users vs non-users, in words
# Experimental: as §1, §2, §4, §5, §6, §7, §8
# [7] = tested on: patients with gastric cancer; assay: Swedish nation-wide register study, cancer specific survival of antihistamine users vs non-users: gastric cancer; assay type: in vivo, human; conditions: for effect of use on gastric cancer survival: users vs non-users, in words
# Experimental: as §1, §2, §4, §5, §3
# [8] = tested on: patients with lung cancer; assay: Swedish nation-wide register study, cancer specific survival of antihistamine users vs non-users: lung cancer; assay type: in vivo, human
# [9] = tested on: patients with brain cancer; assay: Swedish nation-wide register study, cancer specific survival of antihistamine users vs non-users: brain cancer; assay type: in vivo, human; conditions: in words
# [10] = tested on: patients with colo-rectal cancer; assay: Swedish nation-wide register study, cancer specific survival of antihistamine users vs non-users: colorectal cancer; assay type: in vivo, human
# [11] = tested on: patients with pancreatic cancer; assay: Swedish nation-wide register study, cancer specific survival of antihistamine users vs non-users: pancreatic cancer; assay type: in vivo, human; conditions: for effect of use on pancreatic cancer survival: users vs non-users, in words
# Experimental: as §1, §2, §4, §5, §3
# [12] = tested on: patients with Hodgkin's disease; assay: Swedish nation-wide register study, cancer specific survival of antihistamine users vs non-users: Hodgkin's disease; assay type: in vivo, human
smiles,measurement,setting,value
Clc1ccc2c(c1)CCc1cccnc1C2=C1CCNCC1 [desloratadine],effect of use on breast cancer survival,breast cancer [1],consistently beneficial effect
same,effect of use on survival in lympho-hematopoetic malignancies,[2],no effect
same,curative effect suggested by survival curves,"all tumour types; said cancers, survival curves with follow up parallel to non-treated, FIGS. 7 to 18",10-20%
same,effect on breast cancer survival (WO 2016/116438),breast cancer [3],positive effect
same,effect of use on prostate cancer survival,[4],consistently beneficial effect
same,effect of use on uterine cancer survival,[5],no effect
same,5 year survival chance increased by (ovarian cancer),"[6]; ovarian cancer, baseline 5 year survival about 55% 2016, FIG. 1",17%
same,effect of use on ovarian cancer survival,[6],consistently beneficial effect
same,5 year survival chance increased by (gastric cancer),"[7]; gastric cancer, baseline 5 year survival 25% 2016, FIG. 1",30%
same,effect of use on gastric cancer survival,[7],consistently beneficial effect
same,5 year survival chance increased by (lung cancer),"[8]; lung cancer, baseline 5 year survival about 20% 2016, FIG. 1",15%
same,effect of use on lung cancer survival,"[8]; users vs non-users, in words",consistently beneficial effect
same,effect of use on brain cancer survival,[9],no effect
same,5 year survival chance increased by (colorectal cancer),"[10]; colorectal cancer, baseline 5 year survival about 65% 2016, FIG. 1",15%
same,effect of use on colorectal cancer survival,"[10]; users vs non-users, in words",consistently beneficial effect
same,5 year survival chance increased by (pancreatic cancer),"[11]; pancreatic cancer, baseline 5 year survival about 8% 2016, FIG. 1",35%
same,effect of use on pancreatic cancer survival,[11],consistently beneficial effect
same,5 year survival chance increased by (Hodgkin's disease),"[12]; Hodgkin's disease, baseline 5 year survival about 86% 2016, FIG. 1",17%
same,effect of use on Hodgkin's disease survival,"[12]; users vs non-users, in words",strong survival benefit
"O=C(O)COCCN1CCN(C(c2ccccc2)c2ccc(Cl)cc2)CC1 (stereo not shown) [Ceterizine, cetirizine]",effect of use on ovarian cancer survival,[6],better survival
same,effect of use on gastric cancer survival,[7],better survival
same,effect of use on pancreatic cancer survival,[11],better survival
CC(C)(C(=O)O)c1ccc(C(O)CCCN2CCC(C(O)(c3ccccc3)c3ccccc3)CC2)cc1 (stereo not shown) [fexofenadine],"effect of use on survival, all tumour types",all tumour types,insignificant
"CN1CCC[C@@H]1CCO[C@](C)(c1ccccc1)c1ccc(Cl)cc1 [Clemastine, clemastine]","effect of use on survival, all tumour types",all tumour types,consistently showed a worse survival
"CC(C)(C)c1ccc(C(=O)CCCN2CCC(OC(c3ccccc3)c3ccccc3)CC2)cc1 [Ebastine, ebastine]",effect of use on breast cancer survival,breast cancer [1],increased breast cancer survival
same,effect on breast cancer survival (WO 2016/116438),breast cancer [3],positive effect
CCOC(=O)N1CCC(=C2c3ccc(Cl)cc3CCc3cccnc32)CC1 [loratadine],course of survival curves relative to non-users,"all tumour types; FIGS. 7 to 18, in words",most survival curves became parallel to non-users suggesting a long time curative effect
same,effect of use on ovarian cancer survival,[6],survival was better
